Reference: the NIST ThermoML archive (doi:10.1021/je0341918)
Numbers after ± are expanded uncertainties.

Legend:
[1] = molar heat capacity at constant pressure; settings: 298.15 K; 101.33 kPa; Liquid; Small sample (50 mg) DSC
[2] = 101.33 kPa, Liquid
[3] = molar heat capacity at constant pressure; xn = mol fraction of the nth substance listed; settings: 101.3 kPa, Liquid, Small sample (50 mg) DSC, x2 = 0
[4] = xn = mol fraction of the nth substance listed; settings: 101.3 kPa, Liquid, x2 = 0

OCCCCO [1,4-butanediol]
molar heat capacity at constant pressure [1]: 200.9 ± 4 J/K/mol | mass density ([2]; 293.15 K): 1015.76 ± 0.35 kg/m3 | viscosity ([2]; 293.15 K): 90.33 ± 7.4 mPa·s | mass density ([2]; 298.15 K): 1012.68 ± 0.34 kg/m3 | viscosity ([2]; 298.15 K): 71.15 ± 3.5 mPa·s | mass density ([2]; 303.15 K): 1009.54 ± 0.33 kg/m3 | viscosity ([2]; 303.15 K): 55.98 ± 0.93 mPa·s | mass density ([2]; 308.15 K): 1006.43 ± 0.32 kg/m3 | viscosity ([2]; 308.15 K): 44.44 ± 1.5 mPa·s | mass density ([2]; 313.15 K): 1003.37 ± 0.31 kg/m3 | viscosity ([2]; 313.15 K): 35.74 ± 1.2 mPa·s | mass density ([2]; 318.15 K): 1000.45 ± 0.3 kg/m3 | viscosity ([2]; 318.15 K): 29.11 ± 0.97 mPa·s | mass density ([2]; 323.15 K): 997.14 ± 0.31 kg/m3 | viscosity ([2]; 323.15 K): 23.63 ± 0.8 mPa·s | mass density ([2]; 328.15 K): 994.02 ± 0.32 kg/m3 | viscosity ([2]; 328.15 K): 19.68 ± 0.68 mPa·s | mass density ([2]; 333.15 K): 990.93 ± 0.33 kg/m3 | viscosity ([2]; 333.15 K): 16.17 ± 0.57 mPa·s | mass density ([2]; 338.15 K): 987.93 ± 0.33 kg/m3 | viscosity ([2]; 338.15 K): 13.65 ± 0.49 mPa·s | mass density ([2]; 343.15 K): 984.81 ± 0.34 kg/m3 | viscosity ([2]; 343.15 K): 11.45 ± 0.42 mPa·s | mass density ([2]; 348.15 K): 981.7 ± 0.35 kg/m3 | viscosity ([2]; 348.15 K): 9.778 ± 0.37 mPa·s | mass density ([2]; 353.15 K): 978.59 ± 0.36 kg/m3 | viscosity ([2]; 353.15 K): 8.28 ± 0.32 mPa·s | mass density ([2]; 363.15 K): 972.71 ± 0.38 kg/m3 | viscosity ([2]; 363.15 K): 6.213 ± 0.26 mPa·s

O [water] + OCCCCO
molar heat capacity at constant pressure ([3]; 293.15 K): 75.2 ± 1.5 J/K/mol | molar heat capacity at constant pressure ([3]; 303.15 K): 75.3 ± 1.5 J/K/mol | molar heat capacity at constant pressure ([3]; 313.15 K): 75.2 ± 1.5 J/K/mol | molar heat capacity at constant pressure ([3]; 323.15 K): 75.2 ± 1.5 J/K/mol | molar heat capacity at constant pressure ([3]; 333.15 K): 75.2 ± 1.5 J/K/mol | molar heat capacity at constant pressure ([3]; 343.15 K): 75.3 ± 1.5 J/K/mol | molar heat capacity at constant pressure ([3]; 353.15 K): 75.4 ± 1.5 J/K/mol | viscosity ([4]; 293.15 K): 1.002 ± 0.099 mPa·s | viscosity ([4]; 303.15 K): 0.797 ± 0.081 mPa·s | viscosity ([4]; 313.15 K): 0.653 ± 0.069 mPa·s | mass density ([4]; 323.15 K): 988.05 ± 0.29 kg/m3 | viscosity ([4]; 323.15 K): 0.547 ± 0.06 mPa·s | mass density ([4]; 333.15 K): 983.21 ± 0.3 kg/m3 | viscosity ([4]; 333.15 K): 0.467 ± 0.053 mPa·s | mass density ([4]; 343.15 K): 977.79 ± 0.32 kg/m3 | viscosity ([4]; 343.15 K): 0.405 ± 0.047 mPa·s | mass density ([4]; 353.15 K): 971.83 ± 0.34 kg/m3 | viscosity ([4]; 353.15 K): 0.356 ± 0.043 mPa·s
